Blank lines part the entries; values can stand above or below the compound they belong to. Activity calls are given as the source filed them. The rule behind the calls is not given here.
What was measured:
[1] = molecular target: Insulin receptor (Homo sapiens) (UniProt P06213); assay: Inhibition of INSR (unknown origin) at 10 uM by biochemical hotspot kinase assay
[2] = molecular target: Serine/threonine-protein kinase Chk1 (Homo sapiens) (UniProt O14757); assay: Inhibition of CHK1 (unknown origin) at 10 uM by biochemical hotspot kinase assay
Sequence of Serine/threonine-protein kinase Chk1 (Homo sapiens) (O14757 whole entry): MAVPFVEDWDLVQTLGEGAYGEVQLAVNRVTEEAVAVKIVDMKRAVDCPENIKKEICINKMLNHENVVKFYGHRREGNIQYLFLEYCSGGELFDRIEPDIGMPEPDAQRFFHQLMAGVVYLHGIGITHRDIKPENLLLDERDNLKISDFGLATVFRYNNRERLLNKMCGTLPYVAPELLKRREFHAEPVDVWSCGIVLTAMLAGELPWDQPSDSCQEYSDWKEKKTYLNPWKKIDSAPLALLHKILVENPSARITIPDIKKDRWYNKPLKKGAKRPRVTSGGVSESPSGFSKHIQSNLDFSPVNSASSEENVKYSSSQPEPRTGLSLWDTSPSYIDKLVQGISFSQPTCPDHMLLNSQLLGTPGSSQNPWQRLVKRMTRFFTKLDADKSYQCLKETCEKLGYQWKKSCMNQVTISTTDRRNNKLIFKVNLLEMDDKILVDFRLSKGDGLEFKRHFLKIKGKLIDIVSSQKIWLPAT

[3] = molecular target: Vascular endothelial growth factor receptor 1 (Homo sapiens) (UniProt P17948); assay: Inhibition of VEGFR1 (unknown origin) at 10 uM by biochemical hotspot kinase assay relative to control
[4] = molecular target: Mitogen-activated protein kinase 7 (Homo sapiens) (UniProt Q13164); assay: Inhibition of ERK5 (unknown origin) at 10 uM by biochemical hotspot kinase assay
[5] = molecular target: Tyrosine-protein kinase ABL1 (Homo sapiens) (UniProt P00519); assay: Inhibition of ABL1 (unknown origin) at 10 uM by biochemical hotspot kinase assay
[6] = molecular target: cAMP-dependent protein kinase (PKA) (Homo sapiens) (UniProt P22694+P17612+P22612); assay: Inhibition of PKA (unknown origin) at 10 uM by biochemical hotspot kinase assay; assay type: protein assay
[7] = molecular target: Serine/threonine-protein kinase PLK2 (Homo sapiens) (UniProt Q9NYY3); assay: Inhibition of PLK2 (unknown origin) at 10 uM by biochemical hotspot kinase assay relative to control
[8] = molecular target: Phosphorylase b kinase gamma catalytic chain, liver/testis isoform (Homo sapiens) (UniProt P15735); assay: Inhibition of PHKG2 (unknown origin) at 10 uM by biochemical hotspot kinase assay relative to control
Sequence of Phosphorylase b kinase gamma catalytic chain, liver/testis isoform (Homo sapiens) (P15735 whole entry, canonical isoform): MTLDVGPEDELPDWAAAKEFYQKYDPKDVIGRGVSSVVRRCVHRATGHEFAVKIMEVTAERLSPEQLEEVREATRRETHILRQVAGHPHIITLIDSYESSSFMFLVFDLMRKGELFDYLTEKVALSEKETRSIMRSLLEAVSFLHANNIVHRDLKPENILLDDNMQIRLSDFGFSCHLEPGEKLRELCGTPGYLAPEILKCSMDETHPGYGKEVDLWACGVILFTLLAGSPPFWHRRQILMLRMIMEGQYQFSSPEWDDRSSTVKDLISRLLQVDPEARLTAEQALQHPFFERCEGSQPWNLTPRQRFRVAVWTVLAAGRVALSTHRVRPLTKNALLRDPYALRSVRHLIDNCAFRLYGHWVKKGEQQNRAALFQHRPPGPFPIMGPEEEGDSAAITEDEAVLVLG

[9] = molecular target: Hepatocyte growth factor receptor (Homo sapiens) (UniProt P08581); assay: Inhibition of c-MET (unknown origin) at 10 uM by biochemical hotspot kinase assay relative to control
[10] = molecular target: Tyrosine-protein kinase Lck (Homo sapiens) (UniProt P06239); assay: Inhibition of LCK (unknown origin) at 10 uM by biochemical hotspot kinase assay relative to control
Sequence of Tyrosine-protein kinase Lck (Homo sapiens) (P06239 2-509 limits assumed): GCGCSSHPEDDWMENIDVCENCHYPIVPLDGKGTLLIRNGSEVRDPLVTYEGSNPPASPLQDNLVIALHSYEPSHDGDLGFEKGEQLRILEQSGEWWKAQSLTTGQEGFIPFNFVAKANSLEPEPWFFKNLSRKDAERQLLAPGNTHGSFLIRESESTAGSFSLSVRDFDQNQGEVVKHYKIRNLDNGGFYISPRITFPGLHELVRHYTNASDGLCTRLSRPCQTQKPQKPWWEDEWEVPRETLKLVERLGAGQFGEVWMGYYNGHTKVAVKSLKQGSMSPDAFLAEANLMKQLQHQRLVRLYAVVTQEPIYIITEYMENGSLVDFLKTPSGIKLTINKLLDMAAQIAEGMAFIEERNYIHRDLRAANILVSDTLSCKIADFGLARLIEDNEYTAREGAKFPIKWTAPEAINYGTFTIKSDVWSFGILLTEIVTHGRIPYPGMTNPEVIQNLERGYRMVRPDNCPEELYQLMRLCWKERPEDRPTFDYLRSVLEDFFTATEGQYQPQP

[11] = molecular target: Serine/threonine-protein kinase 3 (Homo sapiens) (UniProt Q13188); assay: Inhibition of MST2 (unknown origin) at 10 uM by biochemical hotspot kinase assay relative to control
[12] = molecular target: Interleukin-1 receptor-associated kinase 4 (Homo sapiens) (UniProt Q9NWZ3); assay: Inhibition of IRAK4 (unknown origin) at 10 uM by biochemical hotspot kinase assay
[13] = molecular target: Vascular endothelial growth factor receptor 3 (Homo sapiens) (UniProt P35916); assay: Inhibition of VEGFR3 (unknown origin) at 10 uM by biochemical hotspot kinase assay relative to control
[14] = molecular target: Ephrin type-A receptor 3 (Homo sapiens) (UniProt P29320); assay: Inhibition of EPHA3 (unknown origin) at 10 uM by biochemical hotspot kinase assay relative to control
[15] = system: HT-29; assay: Induction of cell cycle arrest in human HT-29 cells assessed as reduction in accumulation of cells at S phase at 2.5 to 10 uM incubated for 24 hrs by PI staining based analysis; assay type: functional; conditions: dose 2.5-10 µM
[16] = molecular target: Glycogen synthase kinase-3 beta (Homo sapiens) (UniProt P49841); assay: Inhibition of GSK3beta (unknown origin) at 10 uM by biochemical hotspot kinase assay relative to control
[17] = molecular target: Ribosomal protein S6 kinase alpha-1 (Homo sapiens) (UniProt Q15418); assay: Inhibition of RSK1 (unknown origin) at 10 uM by biochemical hotspot kinase assay
[18] = molecular target: Tyrosine-protein kinase Lyn (Homo sapiens) (UniProt P07948); assay: Inhibition of LYN (unknown origin) at 10 uM by biochemical hotspot kinase assay
Sequence of Tyrosine-protein kinase Lyn (Homo sapiens) (P07948 2-512 limits assumed): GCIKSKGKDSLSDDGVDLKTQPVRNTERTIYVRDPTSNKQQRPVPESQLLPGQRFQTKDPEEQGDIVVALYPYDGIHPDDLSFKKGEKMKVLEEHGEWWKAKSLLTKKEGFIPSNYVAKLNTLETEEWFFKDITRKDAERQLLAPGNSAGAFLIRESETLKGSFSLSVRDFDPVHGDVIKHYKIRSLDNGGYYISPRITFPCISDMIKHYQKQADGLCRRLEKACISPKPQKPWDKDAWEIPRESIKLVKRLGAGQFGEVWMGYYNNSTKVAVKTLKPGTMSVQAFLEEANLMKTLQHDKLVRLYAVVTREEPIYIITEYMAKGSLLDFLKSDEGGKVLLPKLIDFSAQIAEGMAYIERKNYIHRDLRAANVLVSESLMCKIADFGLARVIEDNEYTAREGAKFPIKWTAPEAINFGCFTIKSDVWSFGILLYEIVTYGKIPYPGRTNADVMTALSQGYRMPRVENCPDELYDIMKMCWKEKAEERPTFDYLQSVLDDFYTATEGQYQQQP

[19] = molecular target: Mitogen-activated protein kinase kinase kinase 7 (Homo sapiens) (UniProt O43318); assay: Inhibition of TAK1 (unknown origin) at 10 uM by biochemical hotspot kinase assay relative to control
[20] = molecular target: Tyrosine-protein kinase SYK (Homo sapiens) (UniProt P43405); assay: Inhibition of SYK (unknown origin) at 10 uM by biochemical hotspot kinase assay relative to control
[21] = molecular target: Mitogen-activated protein kinase kinase kinase 14 (Homo sapiens) (UniProt Q99558); assay: Inhibition of MAP3K14 (unknown origin) at 10 uM by biochemical hotspot kinase assay relative to control
[22] = molecular target: High affinity nerve growth factor receptor (Homo sapiens) (UniProt P04629); assay: Inhibition of TrkA (unknown origin) at 10 uM by biochemical hotspot kinase assay
Sequence of High affinity nerve growth factor receptor (Homo sapiens) (P04629 33-796 limits assumed): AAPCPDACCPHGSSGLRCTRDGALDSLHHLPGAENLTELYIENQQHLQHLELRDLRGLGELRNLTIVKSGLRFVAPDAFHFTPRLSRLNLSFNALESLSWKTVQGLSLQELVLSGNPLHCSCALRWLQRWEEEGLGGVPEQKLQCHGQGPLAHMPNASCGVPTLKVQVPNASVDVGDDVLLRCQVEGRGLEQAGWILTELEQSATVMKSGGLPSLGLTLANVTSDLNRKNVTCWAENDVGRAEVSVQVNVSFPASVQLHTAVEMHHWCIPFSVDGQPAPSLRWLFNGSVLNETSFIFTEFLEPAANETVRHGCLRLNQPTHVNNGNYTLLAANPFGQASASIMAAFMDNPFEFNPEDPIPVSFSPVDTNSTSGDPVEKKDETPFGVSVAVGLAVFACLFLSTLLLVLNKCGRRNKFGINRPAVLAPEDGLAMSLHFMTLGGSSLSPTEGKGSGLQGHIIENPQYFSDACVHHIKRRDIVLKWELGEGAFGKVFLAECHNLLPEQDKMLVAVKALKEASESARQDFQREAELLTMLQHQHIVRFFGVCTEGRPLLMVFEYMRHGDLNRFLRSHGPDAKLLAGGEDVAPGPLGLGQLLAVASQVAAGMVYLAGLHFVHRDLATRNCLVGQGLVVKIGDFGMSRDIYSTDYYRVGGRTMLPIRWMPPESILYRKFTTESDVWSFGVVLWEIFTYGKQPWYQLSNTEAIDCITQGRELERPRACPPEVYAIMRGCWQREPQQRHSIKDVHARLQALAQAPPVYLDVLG

[23] = system: A498; assay: Antiproliferative activity against human A498 cells assessed as inhibition of cell growth at 10 uM by SRB assay relative to control; assay type: functional
[24] = molecular target: Proto-oncogene tyrosine-protein kinase Src (Homo sapiens) (UniProt P12931); assay: Inhibition of c-Src (unknown origin) at 10 uM by biochemical hotspot kinase assay
[25] = molecular target: Platelet-derived growth factor receptor alpha (Homo sapiens) (UniProt P16234); assay: Inhibition of PDGFRa (unknown origin) at 10 uM by biochemical hotspot kinase assay
[26] = molecular target: RAC-alpha serine/threonine-protein kinase (Homo sapiens) (UniProt P31749); assay: Inhibition of AKT1 (unknown origin) at 10 uM by biochemical hotspot kinase assay relative to control
[27] = system: OVCAR-5; assay: Antiproliferative activity against human OVCAR-5 cells assessed as inhibition of cell growth at 10 uM by SRB assay relative to control; assay type: functional
[28] = molecular target: RAF proto-oncogene serine/threonine-protein kinase (Homo sapiens) (UniProt P04049); assay: Inhibition of c-RAF (unknown origin) at 10 uM by biochemical hotspot kinase assay relative to control
[29] = molecular target: Mitogen-activated protein kinase 1 (Homo sapiens) (UniProt P28482); assay: Inhibition of ERK2 (unknown origin) at 10 uM by biochemical hotspot kinase assay relative to control
Sequence of Mitogen-activated protein kinase 1 (Homo sapiens) (P28482 whole entry): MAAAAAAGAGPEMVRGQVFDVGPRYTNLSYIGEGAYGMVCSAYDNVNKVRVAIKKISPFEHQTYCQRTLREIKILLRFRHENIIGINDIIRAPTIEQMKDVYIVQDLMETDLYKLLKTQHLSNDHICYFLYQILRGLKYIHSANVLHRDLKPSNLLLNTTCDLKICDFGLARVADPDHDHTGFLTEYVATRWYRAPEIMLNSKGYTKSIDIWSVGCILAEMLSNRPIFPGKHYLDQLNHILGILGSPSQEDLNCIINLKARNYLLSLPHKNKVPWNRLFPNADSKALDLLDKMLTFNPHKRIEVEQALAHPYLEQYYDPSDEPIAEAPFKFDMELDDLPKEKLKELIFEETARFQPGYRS

[30] = molecular target: Cyclin-dependent kinase 2/cyclin A (Homo sapiens) (UniProt P24941+P20248+P78396); assay: Inhibition of CDK2/cyclin A (unknown origin) at 10 uM by biochemical hotspot kinase assay; assay type: protein-complex assay
[31] = molecular target: TRAF2 and NCK-interacting protein kinase (Homo sapiens) (UniProt Q9UKE5); assay: Inhibition of TNIK (unknown origin) at 10 uM by biochemical hotspot kinase assay relative to control
Sequence of TRAF2 and NCK-interacting protein kinase (Homo sapiens) (Q9UKE5 whole entry, looked up): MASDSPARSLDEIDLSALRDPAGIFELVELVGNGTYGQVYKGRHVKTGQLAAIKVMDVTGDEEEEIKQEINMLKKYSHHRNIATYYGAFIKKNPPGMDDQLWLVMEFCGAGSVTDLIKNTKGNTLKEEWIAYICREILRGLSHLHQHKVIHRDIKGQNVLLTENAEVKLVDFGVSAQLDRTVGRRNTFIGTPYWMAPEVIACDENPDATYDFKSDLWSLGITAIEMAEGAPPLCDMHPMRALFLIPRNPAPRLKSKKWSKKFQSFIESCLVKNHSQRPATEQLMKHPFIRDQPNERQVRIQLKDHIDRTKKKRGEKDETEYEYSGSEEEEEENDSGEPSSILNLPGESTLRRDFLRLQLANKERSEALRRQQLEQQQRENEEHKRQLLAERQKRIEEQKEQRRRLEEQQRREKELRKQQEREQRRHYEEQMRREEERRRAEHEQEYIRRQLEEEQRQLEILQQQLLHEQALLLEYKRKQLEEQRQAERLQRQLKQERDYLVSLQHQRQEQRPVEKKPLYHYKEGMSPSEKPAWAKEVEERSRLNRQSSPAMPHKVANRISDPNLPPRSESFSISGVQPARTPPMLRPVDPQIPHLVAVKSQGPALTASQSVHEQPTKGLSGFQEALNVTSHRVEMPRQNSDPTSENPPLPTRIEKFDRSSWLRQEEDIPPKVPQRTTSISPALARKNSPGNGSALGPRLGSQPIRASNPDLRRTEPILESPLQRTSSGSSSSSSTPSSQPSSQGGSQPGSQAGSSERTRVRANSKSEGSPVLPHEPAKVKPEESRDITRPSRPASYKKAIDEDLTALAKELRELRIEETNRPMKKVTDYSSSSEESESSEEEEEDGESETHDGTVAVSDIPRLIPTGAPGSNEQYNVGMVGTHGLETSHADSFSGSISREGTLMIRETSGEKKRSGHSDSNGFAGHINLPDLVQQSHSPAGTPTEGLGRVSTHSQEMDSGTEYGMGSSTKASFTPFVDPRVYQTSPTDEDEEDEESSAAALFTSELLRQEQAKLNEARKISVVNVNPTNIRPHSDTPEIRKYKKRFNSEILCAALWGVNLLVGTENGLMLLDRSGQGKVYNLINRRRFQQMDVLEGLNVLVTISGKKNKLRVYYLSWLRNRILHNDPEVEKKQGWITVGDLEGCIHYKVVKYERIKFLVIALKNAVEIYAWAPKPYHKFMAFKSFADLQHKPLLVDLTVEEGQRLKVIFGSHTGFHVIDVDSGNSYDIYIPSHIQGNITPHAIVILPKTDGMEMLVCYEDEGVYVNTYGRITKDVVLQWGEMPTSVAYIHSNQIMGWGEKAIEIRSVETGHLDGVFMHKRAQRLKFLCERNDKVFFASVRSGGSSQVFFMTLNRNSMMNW

[32] = molecular target: Serine/threonine-protein kinase 17A (Homo sapiens) (UniProt Q9UEE5); assay: Inhibition of DRAK1 (unknown origin) at 10 uM by biochemical hotspot kinase assay relative to control
Sequence of Serine/threonine-protein kinase 17A (Homo sapiens) (Q9UEE5 whole entry): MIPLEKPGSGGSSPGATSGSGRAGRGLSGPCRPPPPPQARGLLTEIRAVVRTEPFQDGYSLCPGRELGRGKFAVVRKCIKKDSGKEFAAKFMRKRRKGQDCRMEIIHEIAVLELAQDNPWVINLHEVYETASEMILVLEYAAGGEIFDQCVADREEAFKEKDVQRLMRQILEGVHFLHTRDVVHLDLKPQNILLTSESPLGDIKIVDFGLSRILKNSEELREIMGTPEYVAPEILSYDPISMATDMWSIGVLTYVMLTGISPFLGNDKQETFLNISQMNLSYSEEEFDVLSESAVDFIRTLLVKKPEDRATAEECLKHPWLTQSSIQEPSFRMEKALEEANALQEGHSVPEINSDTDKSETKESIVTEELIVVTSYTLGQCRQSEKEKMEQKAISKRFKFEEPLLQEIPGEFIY

[33] = molecular target: Receptor tyrosine-protein kinase erbB-4 (Homo sapiens) (UniProt Q15303); assay: Inhibition of ERBB4 (unknown origin) at 10 uM by biochemical hotspot kinase assay relative to control
[34] = molecular target: Serine/threonine-protein kinase ICK (Homo sapiens) (UniProt Q9UPZ9); assay: Inhibition of LCK2 (unknown origin) at 10 uM by biochemical hotspot kinase assay
[35] = system: SK-OV-3; assay: Antiproliferative activity against human SK-OV-3 cells assessed as inhibition of cell growth at 10 uM by SRB assay relative to control; assay type: functional
[36] = system: SF-268; assay: Antiproliferative activity against human SF-268 cells assessed as cell growth inhibition at 10 uM by SRB assay relative to control; assay type: functional

inhibition [1]: inactive | inhibition [2]: inactive | inhibition [3]: 14.9% | inhibition [4]: inactive | inhibition [5]: inactive | inhibition [6]: inactive | inhibition [7]: 10.5% | inhibition [8]: 8.33% | inhibition [9]: 27.1% | inhibition [10]: 0.68% | inhibition [11]: 14.2% | inhibition [12]: inactive | inhibition [13]: 8.65% | inhibition [14]: 7.95% | inhibition [16]: 1.03% | inhibition [17]: inactive | inhibition [18]: inactive | inhibition [19]: 7.06% | inhibition [20]: 1.17% | inhibition [21]: 20.9% | inhibition [22]: inactive | inhibition [24]: inactive | inhibition [25]: inactive | inhibition [26]: 2.36% | inhibition [28]: 3.26% | inhibition [29]: 17.2% | inhibition [30]: inactive | inhibition [31]: 46.1% | inhibition [32]: 3.24% | inhibition [33]: 16% | inhibition [34]: inactive
Structure (SMILES): COc1cc2oc(-c3cccc(C(=O)Nc4ccc(C)cc4)c3)cc(=O)c2c(OC)c1OC
Activity [15]: Active | inhibition at 10 µM [23]: 94% | inhibition at 10 µM [27]: 51.8%

Structure (SMILES): COc1cc2oc(-c3cccc(C(=O)Nc4ccc(Cl)cc4)c3)cc(=O)c2c(OC)c1OC
inhibition at 10 µM [35]: 56.9% | inhibition at 10 µM [36]: > 50%

— ChEMBL document CHEMBL5260845, “Flavone-based arylamides as potential anticancers: Design, synthesis and in vitro cell-based/cell-free evaluations” (2020)
